Reference: patent US20250313572A1, “MACROCYCLIC MCL-1 INHIBITORS AND METHODS OF USE” (AbbVie Inc., priority 2017, published 2025)
Like-named read-outs stand apart in the source and are kept apart here.

Key:
[1] = tested on: AMO-1 human multiple myeloma tumor cell line; test: AMO-1 cell viability assay (CellTiter-Glo, 24 hours); type: cell-based; settings: Homo sapiens, AMO1, 24 h, read-out: AMO-1 Viability IC50 (μM, 10% FBS), 10% FBS, 24 hours of compound treatment
[2] = tested on: NCI-H929 human multiple myeloma tumor cell line; test: NCI-H929 cell viability assay (CellTiter-Glo, 24 hours); type: cell-based; settings: Homo sapiens, NCI-H929, 24 h, read-out: H929 Viability IC50 (μM, 10% FBS), 10% FBS, 24 hours of compound treatment
GST-MCL-1 = GST-MCL-1 (Homo sapiens, UniProt Q07820); test: TR-FRET MCL-1 binding assay (competition with probe F-Bak)
Method in brief: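 Test compounds, 11 three-fold dilutions from 25 μM final, incubated 2 hours at room temperature with GST-MCL-1, F-Bak probe and Tb-anti-GST antibody. TR-FRET read at 340/35 nm excitation with 520/525 and 495/510 nm emission. Run without human serum and with 10% HS.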

[3] = MCL-1 Binding Ki (nM, 10% HS), in the presence of 10% HS (human serum)
[4] = without HS, read-out: MCL-1 Binding Ki

Sequence of GST-MCL-1 (Q07820 whole entry): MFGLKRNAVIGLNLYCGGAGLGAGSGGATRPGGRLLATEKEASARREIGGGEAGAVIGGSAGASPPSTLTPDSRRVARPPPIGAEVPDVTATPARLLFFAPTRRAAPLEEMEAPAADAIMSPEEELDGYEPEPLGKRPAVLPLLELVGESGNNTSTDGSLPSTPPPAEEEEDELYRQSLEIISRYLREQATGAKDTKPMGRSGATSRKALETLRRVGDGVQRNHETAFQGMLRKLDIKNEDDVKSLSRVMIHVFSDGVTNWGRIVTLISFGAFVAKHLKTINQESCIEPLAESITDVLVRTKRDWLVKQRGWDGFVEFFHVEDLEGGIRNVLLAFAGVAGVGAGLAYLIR

Compound | IC50 [1] | IC50 [2] | Ki (GST-MCL-1; [3]) | Ki (GST-MCL-1; [4])
Cc1c(Cl)c2c(Cl)c(C)c1-c1c(-c3ccc(F)cc3)sc3ncnc(c13)O[C@@H](C(=O)O)Cc1cc(ccc1OCc1ccnc(N3CCC(F)(COCCOCC4COCCO4)CC3)n1)OC[C@@H](CN1CCN(C)CC1)O2 (stereo partly drawn) [Example 91, (7R,16R)-19,23-dichloro-10-({2-[4-({2-[(1,4-dioxan-2-yl)methoxy]ethoxy}methyl)-4-fluoropiperidin-1-yl]pyrimidin-4-yl}methoxy)-1-(4-fluorophenyl)-20,22-dimethyl-16-[(4-methylpiperazin-1-yl)methyl]-7,8,15,16-tetrahydro-18,21-etheno-13,9-(metheno)-6,14,17-trioxa-2-thia-3,5-diazacyclononadeca[1,2,3-cd]indene-7-carboxylic Acid] | 0.72 nM | 1.92 nM | 2.1 nM | 0.231 nM
COCCOCCOCCN(CCOCCOCCOC)c1nccc(COc2ccc3cc2C[C@H](C(=O)O)Oc2ncnc4sc(-c5ccc(F)cc5)c(c24)-c2c(C)c(Cl)c(c(Cl)c2C)O[C@H](CN2CCN(C)CC2)CO3)n1 [Example 93, (7R,16R)-10-{[2-(bis{2-[2-(2-methoxyethoxy)ethoxy]ethyl}amino)pyrimidin-4-yl]methoxy}-19,23-dichloro-1-(4-fluorophenyl)-20,22-dimethyl-16-[(4-methylpiperazin-1-yl)methyl]-7,8,15,16-tetrahydro-18,21-etheno-13,9-(metheno)-6,14,17-trioxa-2-thia-3,5-diazacyclononadeca[1,2,3-cd]indene-7-carboxylic Acid] | 5.53 nM | 4.24 nM | 4.34 nM | 0.748 nM
COCCOCCOCCOCC1CN(c2nccc(COc3ccc4cc3C[C@H](C(=O)O)Oc3ncnc5sc(-c6ccc(F)cc6)c(c35)-c3c(C)c(Cl)c(c(Cl)c3C)O[C@H](CN3CCN(C)CC3)CO4)n2)C1 [Example 94, (7R,16R)-19,23-dichloro-1-(4-fluorophenyl)-20,22-dimethyl-16-[(4-methylpiperazin-1-yl)methyl]-10-({2-[3-(2,5,8,11-tetraoxadodecan-1-yl)azetidin-1-yl]pyrimidin-4-yl}methoxy)-7,8,15,16-tetrahydro-18,21-etheno-9,13-(metheno)-6,14,17-trioxa-2-thia-3,5-diazacyclononadeca[1,2,3-cd]indene-7-carboxylic Acid] | 2.03 nM | 1.84 nM | 1.08 nM | 0.181 nM
COCCOCCOC[C@]1(F)CC[C@@H](c2nccc(COc3ccc4cc3C[C@H](C(=O)O)Oc3ncnc5sc(-c6ccc(F)cc6)c(c35)-c3c(C)c(Cl)c(c(Cl)c3C)O[C@H](CN3CCN(C)CC3)CO4)n2)CC1 [Example 96, (7R,16R)-19,23-dichloro-10-({2-[(1s,4s)-4-fluoro-4-{[2-(2-methoxyethoxy)ethoxy]methyl}cyclohexyl]pyrimidin-4-yl}methoxy)-1-(4-fluorophenyl)-20,22-dimethyl-16-[(4-methylpiperazin-1-yl)methyl]-7,8,15,16-tetrahydro-18,21-etheno-13,9-(metheno)-6,14,17-trioxa-2-thia-3,5-diazacyclononadeca[1,2,3-cd]indene-7-carboxylic Acid] | 0.287 nM | 0.259 nM | 0.037 nM | 0.003 nM
COCCOCCOCCOc1cccc(COc2ccc3cc2C[C@H](C(=O)O)Oc2ncnc4sc(-c5ccc(F)cc5)c(c24)-c2c(C)c(Cl)c(c(Cl)c2C)O[C@H](CN2CCN(C)CC2)CO3)n1 [Example 99, (7R,16R)-19,23-dichloro-1-(4-fluorophenyl)-10-[(6-{2-[2-(2-methoxyethoxy)ethoxy]ethoxy}pyridin-2-yl)methoxy]-20,22-dimethyl-16-[(4-methylpiperazin-1-yl)methyl]-7,8,15,16-tetrahydro-18,21-etheno-9,13-(metheno)-6,14,17-trioxa-2-thia-3,5-diazacyclononadeca[1,2,3-cd]indene-7-carboxylic Acid] | 0.655 nM | 2.69 nM | 6.17 nM | 0.543 nM
Cc1c(Cl)c2c(Cl)c(C)c1-c1c(-c3ccc(F)cc3)sc3ncnc(c13)O[C@@H](C(=O)O)Cc1cc(ccc1OCc1ccnc(C3(COCCOC[C@H]4COCCO4)CCCCC3)n1)OC[C@@H](CN1CCN(C)CC1)O2 [Example 102, (7R,16R)-19,23-dichloro-10-[(2-{1-[(2-{[(2R)-1,4-dioxan-2-yl]methoxy}ethoxy)methyl]cyclohexyl}pyrimidin-4-yl)methoxy]-1-(4-fluorophenyl)-20,22-dimethyl-16-[(4-methylpiperazin-1-yl)methyl]-7,8,15,16-tetrahydro-18,21-etheno-13,9-(metheno)-6,14,17-trioxa-2-thia-3,5-diazacyclononadeca[1,2,3-cd]indene-7-carboxylic Acid] | 0.29 nM | 0.835 nM | 3.27 nM | 0.229 nM
Cc1c(Cl)c2c(Cl)c(C)c1-c1c(-c3ccc(F)cc3)sc3ncnc(c13)O[C@@H](C(=O)O)Cc1cc(ccc1OCc1ccnc(N3CCO[C@H](COCCOCC4COCCO4)C3)n1)OC[C@@H](CN1CCN(C)CC1)O2 (stereo partly drawn) [Example 103, (7R,16R)-19,23-dichloro-10-({2-[(2S)-2-({2-[(1,4-dioxan-2-yl)methoxy]ethoxy}methyl)morpholin-4-yl]pyrimidin-4-yl}methoxy)-1-(4-fluorophenyl)-20,22-dimethyl-16-[(4-methylpiperazin-1-yl)methyl]-7,8,15,16-tetrahydro-18,21-etheno-13,9-(metheno)-6,14,17-trioxa-2-thia-3,5-diazacyclononadeca[1,2,3-cd]indene-7-carboxylic Acid] | 0.281 nM | 0.578 nM | 0.172 nM | 0.033 nM
COCCOCCOCCOc1cccc(-c2nccc(COc3ccc4cc3C[C@H](C(=O)O)Oc3ncnc5sc(-c6ccc(F)cc6)c(c35)-c3c(C)c(Cl)c(c(Cl)c3C)O[C@H](CN3CCN(C)CC3)CO4)n2)c1 [Example 104, (7R,16R)-19,23-dichloro-1-(4-fluorophenyl)-10-{[2-(3-{2-[2-(2-methoxyethoxy)ethoxy]ethoxy}phenyl)pyrimidin-4-yl]methoxy}-20,22-dimethyl-16-[(4-methylpiperazin-1-yl)methyl]-7,8,15,16-tetrahydro-18,21-etheno-13,9-(metheno)-6,14,17-trioxa-2-thia-3,5-diazacyclononadeca[1,2,3-cd]indene-7-carboxylic Acid] | 0.0488 nM | 0.0557 nM | 0.089 nM | 0.009 nM
Cc1c(Cl)c2c(Cl)c(C)c1-c1c(-c3ccc(F)cc3)sc3ncnc(c13)O[C@@H](C(=O)O)Cc1cc(ccc1OCc1ccnc(-c3ccc(OCC4COCCOCCOCCOCCO4)cc3)n1)OC[C@@H](CN1CCN(C)CC1)O2 (stereo partly drawn) [Example 107, (7R,16R)-19,23-dichloro-1-(4-fluorophenyl)-20,22-dimethyl-16-[(4-methylpiperazin-1-yl)methyl]-10-[(2-{4-[(1,4,7,10,13-pentaoxacyclopentadecan-2-yl)methoxy]phenyl}pyrimidin-4-yl)methoxy]-7,8,15,16-tetrahydro-18,21-etheno-13,9-(metheno)-6,14,17-trioxa-2-thia-3,5-diazacyclononadeca[1,2,3-cd]indene-7-carboxylic Acid] | 1.47 nM | 0.552 nM | 0.412 nM | 0.026 nM
COCCOCCN(CCOCCOC)c1nccc(COc2ccc3cc2C[C@H](C(=O)O)Oc2ncnc4sc(-c5ccc(F)cc5)c(c24)-c2c(C)c(Cl)c(c(Cl)c2C)O[C@H](CN2CCN(C)CC2)CO3)n1 [Example 108, (7R,16R)-10-[(2-{bis[2-(2-methoxyethoxy)ethyl]amino}pyrimidin-4-yl)methoxy]-19,23-dichloro-1-(4-fluorophenyl)-20,22-dimethyl-16-[(4-methylpiperazin-1-yl)methyl]-7,8,15,16-tetrahydro-18,21-etheno-13,9-(metheno)-6,14,17-trioxa-2-thia-3,5-diazacyclononadeca[1,2,3-cd]indene-7-carboxylic Acid] | 3.43 nM | 4.17 nM | 6.62 nM | 1.08 nM
COCCOCCOCCOCCN(CCOCCOCCOCCOC)c1nccc(COc2ccc3cc2C[C@H](C(=O)O)Oc2ncnc4sc(-c5ccc(F)cc5)c(c24)-c2c(C)c(Cl)c(c(Cl)c2C)O[C@H](CN2CCN(C)CC2)CO3)n1 [Example 109, (7R,16R)-10-({2-[bis(2,5,8,11-tetraoxatridecan-13-yl)amino]pyrimidin-4-yl}methoxy)-19,23-dichloro-1-(4-fluorophenyl)-20,22-dimethyl-16-[(4-methylpiperazin-1-yl)methyl]-7,8,15,16-tetrahydro-18,21-etheno-13,9-(metheno)-6,14,17-trioxa-2-thia-3,5-diazacyclononadeca[1,2,3-cd]indene-7-carboxylic Acid] | 16.6 nM | 12.8 nM | 2.43 nM | 0.104 nM
COCC(COC)Oc1ccc(-c2nccc(COc3ccc4cc3C[C@H](C(=O)O)Oc3ncnc5sc(-c6ccc(F)cc6)c(c35)-c3c(C)c(Cl)c(c(Cl)c3C)O[C@H](CN3CCN(C)CC3)CO4)n2)cc1 [Example 110, (7R,16R)-19,23-dichloro-10-[(2-{4-[(1,3-dimethoxypropan-2-yl)oxy]phenyl}pyrimidin-4-yl)methoxy]-1-(4-fluorophenyl)-20,22-dimethyl-16-[(4-methylpiperazin-1-yl)methyl]-7,8,15,16-tetrahydro-18,21-etheno-9,13-(metheno)-6,14,17-trioxa-2-thia-3,5-diazacyclononadeca[1,2,3-cd]indene-7-carboxylic Acid] | 0.306 nM | 1.03 nM | 49.9 nM | 9.63 nM
